Molecular target: human Factor IXa (Homo sapiens (Human), UniProt P00740)
Assay: Factor IXa enzyme assay (SPECTROFLUOR FIXa fluorogenic substrate)
Format: biochemical
Conditions: human Factor IXa 2.0 μg/ml, SPECTROFLUOR FIXa 100 μM, 60 minutes at room temperature, pH 8.0
Procedure: Inhibitory activity against Factor IXa was tested using the substrate SPECTROFLUOR FIXa (American Diagnostica Inc.; 500 West Avenue, Stamford, Conn. 06902 USA; Pr. No. 299F) and human Factor IXa (American Diagnostica Inc.; Pr. No. 449b). Test substances dissolved in buffer A (50 mM α,α,α-tris(hydroxymethyl)methylamine (Tris), 100 mM NaCl, 5 mM CaCl2, 15% (v/v) ethylene glycol, pH 8.0) were mixed with Factor IXa (2.0 μg/ml final concentration). The enzyme reaction was started by addition of SPECTROFLUOR FIXa (100 μM final concentration). After incubation for 60 minutes at room temperature, the reaction was stopped by the addition of 20% (v/v) acetic acid solution, and then fluorescence value measured (Excitation Wavelength: 355 nm, Emission Wavelength; 460 nm) in a microtiter plate reader (ARVO 1420 Multilabel Counter; PerkinElmer).
IC50 was calculated from a dilution series of the test substance with the aid of the software, Symix Assay Explorer (Symyx Technologies, Inc.).

human Factor IXa, sequence (P00740 227-461): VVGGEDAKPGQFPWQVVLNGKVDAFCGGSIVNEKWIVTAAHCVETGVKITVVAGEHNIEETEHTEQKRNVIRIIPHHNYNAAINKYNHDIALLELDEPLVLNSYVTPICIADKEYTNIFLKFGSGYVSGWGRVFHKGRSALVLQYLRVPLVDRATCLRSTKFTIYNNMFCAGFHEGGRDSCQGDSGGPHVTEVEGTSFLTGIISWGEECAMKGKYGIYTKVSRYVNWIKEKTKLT
human Factor IXa, sequence (P00740 47-191 partner): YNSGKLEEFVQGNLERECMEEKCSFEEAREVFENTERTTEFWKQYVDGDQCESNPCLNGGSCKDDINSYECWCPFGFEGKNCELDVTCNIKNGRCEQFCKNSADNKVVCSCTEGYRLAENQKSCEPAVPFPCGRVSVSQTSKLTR

CC(C)(C)c1ccc(-n2cccc(C(O)C(=O)Nc3ccc4c(N)noc4c3)c2=O)cc1 (racemic) [Example 5, (±)-N-(3-aminobenzo[d]isoxazol-6-yl)-2-(1-(4-tert-butylphenyl)-2-oxo-1,2-dihydropyridin-3-yl)-2-hydroxyacetamide]
IC50: 1000 nM

CC(C)(C)c1ccc(-n2cccc(C(O)C(=O)Nc3ccc4c(N)nccc4c3)c2=O)cc1 (racemic) [Example 6, (±)-N-(1-aminoisoquinolin-6-yl)-2-(1-(4-tert-butylphenyl)-2-oxo-1,2-dihydropyridin-3-yl)-2-hydroxyacetamide]
IC50: 54 nM

Reference: patent US8980916B2, “Factor IXa inhibitors” (Merck Sharp & Dohme Corp., priority 2011, dated 2015)
